Measurements reported in PMC11629774 (Science (New York, N.Y.), 2024).

Tested on: primary human tonsillar lymphocytes
Assay: Toxicity in primary human tonsillar lymphocytes at 72 hours
Assay type: cell-based
Conditions: Lymphocyte, read-out: EC50 toxicity

Row | SMILES | EC50 [µM]
1 | CC(C)(C)c1cnc(CSc2cnc(NC(=O)C3CCNCC3)s2)o1 [SNS-032] | ~0.15
2 | CC(C)(C)c1cnc(CSc2cnc(NC(=O)C3CCN(CC(=O)NCCOCCOCCOCCNc4cccc5c4C(=O)N(C4CCC(=O)NC4=O)C5=O)CC3)s2)o1 (centres unmarked) [THAL-SNS-032] | ~0.015
